Reference: ChEMBL document CHEMBL5465560, “Selectivity Literature for EUbOPEN Chemogenomic Library” (2024)
Values belong to the molecule of their own block, whether it stands above or below them.

What was measured:
[1] = biological target: Tyrosine-protein kinase Srms (Homo sapiens) (UniProt Q9H3Y6); conditions: at 10 µM
[2] = biological target: Tyrosine-protein kinase Fes/Fps (Homo sapiens) (UniProt P07332); assay: Selectivity interaction (Millipore kinase profiler) EUB0000124b FES; conditions: at 10 µM
Sequence of Tyrosine-protein kinase Fes/Fps (Homo sapiens) (P07332 whole entry): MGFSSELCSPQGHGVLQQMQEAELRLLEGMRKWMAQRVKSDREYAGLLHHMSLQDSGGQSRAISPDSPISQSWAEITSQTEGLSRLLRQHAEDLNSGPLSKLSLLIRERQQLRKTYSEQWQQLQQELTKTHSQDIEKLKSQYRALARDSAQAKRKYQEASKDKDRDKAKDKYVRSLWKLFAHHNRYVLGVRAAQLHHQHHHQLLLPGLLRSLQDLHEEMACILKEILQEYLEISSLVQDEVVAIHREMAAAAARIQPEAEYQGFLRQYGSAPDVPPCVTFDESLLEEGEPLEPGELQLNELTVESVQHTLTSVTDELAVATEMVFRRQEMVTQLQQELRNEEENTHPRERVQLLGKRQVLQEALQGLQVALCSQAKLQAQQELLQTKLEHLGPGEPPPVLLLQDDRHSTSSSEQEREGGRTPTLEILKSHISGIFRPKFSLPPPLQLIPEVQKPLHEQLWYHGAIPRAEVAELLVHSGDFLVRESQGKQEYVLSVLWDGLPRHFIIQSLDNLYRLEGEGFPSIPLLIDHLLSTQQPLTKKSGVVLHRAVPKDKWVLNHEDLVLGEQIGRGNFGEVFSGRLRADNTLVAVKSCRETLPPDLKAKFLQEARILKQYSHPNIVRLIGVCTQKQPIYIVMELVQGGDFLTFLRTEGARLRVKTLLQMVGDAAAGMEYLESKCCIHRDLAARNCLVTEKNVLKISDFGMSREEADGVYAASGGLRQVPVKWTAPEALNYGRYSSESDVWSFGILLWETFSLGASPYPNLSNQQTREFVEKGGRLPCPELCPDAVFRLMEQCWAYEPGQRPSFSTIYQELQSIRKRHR

[3] = biological target: T1, Serine/threonine-protein kinase Nek9 (Homo sapiens) (UniProt Q8TD19); assay: Selectivity interaction (KinomeScan (DiscoverX)) EUB0000618a NEK9; conditions: at 10 µM
T1 sequence (whole entry): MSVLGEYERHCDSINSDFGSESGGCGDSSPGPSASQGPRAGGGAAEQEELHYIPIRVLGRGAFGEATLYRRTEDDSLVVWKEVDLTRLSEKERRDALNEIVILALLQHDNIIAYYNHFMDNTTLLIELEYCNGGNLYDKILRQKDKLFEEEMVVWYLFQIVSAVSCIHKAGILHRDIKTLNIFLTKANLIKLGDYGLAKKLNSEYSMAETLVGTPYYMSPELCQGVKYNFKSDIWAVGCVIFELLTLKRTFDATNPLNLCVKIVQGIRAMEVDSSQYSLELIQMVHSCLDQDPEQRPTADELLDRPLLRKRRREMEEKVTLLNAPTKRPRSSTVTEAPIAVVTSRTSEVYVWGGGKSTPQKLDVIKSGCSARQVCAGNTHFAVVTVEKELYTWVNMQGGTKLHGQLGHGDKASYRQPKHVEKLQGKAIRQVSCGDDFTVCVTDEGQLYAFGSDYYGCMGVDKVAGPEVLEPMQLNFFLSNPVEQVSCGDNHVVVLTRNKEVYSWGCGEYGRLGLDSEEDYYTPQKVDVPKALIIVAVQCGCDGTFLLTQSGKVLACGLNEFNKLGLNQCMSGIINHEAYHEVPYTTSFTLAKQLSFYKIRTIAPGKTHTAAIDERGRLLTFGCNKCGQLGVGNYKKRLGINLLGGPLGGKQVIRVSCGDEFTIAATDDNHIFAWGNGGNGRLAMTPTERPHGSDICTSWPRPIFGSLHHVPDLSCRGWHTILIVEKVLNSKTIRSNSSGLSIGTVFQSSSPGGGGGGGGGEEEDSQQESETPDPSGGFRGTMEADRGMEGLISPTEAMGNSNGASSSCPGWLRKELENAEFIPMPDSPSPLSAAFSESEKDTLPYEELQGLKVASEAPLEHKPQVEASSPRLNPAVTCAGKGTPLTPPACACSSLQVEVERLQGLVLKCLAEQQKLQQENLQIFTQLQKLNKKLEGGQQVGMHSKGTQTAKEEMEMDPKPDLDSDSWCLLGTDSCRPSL

[4] = biological target: T2, Ephrin type-A receptor 3 (Homo sapiens) (UniProt P29320); assay: Selectivity interaction (KinomeScan (DiscoverX)) EUB0000045b EPHA3
T2 sequence (whole entry): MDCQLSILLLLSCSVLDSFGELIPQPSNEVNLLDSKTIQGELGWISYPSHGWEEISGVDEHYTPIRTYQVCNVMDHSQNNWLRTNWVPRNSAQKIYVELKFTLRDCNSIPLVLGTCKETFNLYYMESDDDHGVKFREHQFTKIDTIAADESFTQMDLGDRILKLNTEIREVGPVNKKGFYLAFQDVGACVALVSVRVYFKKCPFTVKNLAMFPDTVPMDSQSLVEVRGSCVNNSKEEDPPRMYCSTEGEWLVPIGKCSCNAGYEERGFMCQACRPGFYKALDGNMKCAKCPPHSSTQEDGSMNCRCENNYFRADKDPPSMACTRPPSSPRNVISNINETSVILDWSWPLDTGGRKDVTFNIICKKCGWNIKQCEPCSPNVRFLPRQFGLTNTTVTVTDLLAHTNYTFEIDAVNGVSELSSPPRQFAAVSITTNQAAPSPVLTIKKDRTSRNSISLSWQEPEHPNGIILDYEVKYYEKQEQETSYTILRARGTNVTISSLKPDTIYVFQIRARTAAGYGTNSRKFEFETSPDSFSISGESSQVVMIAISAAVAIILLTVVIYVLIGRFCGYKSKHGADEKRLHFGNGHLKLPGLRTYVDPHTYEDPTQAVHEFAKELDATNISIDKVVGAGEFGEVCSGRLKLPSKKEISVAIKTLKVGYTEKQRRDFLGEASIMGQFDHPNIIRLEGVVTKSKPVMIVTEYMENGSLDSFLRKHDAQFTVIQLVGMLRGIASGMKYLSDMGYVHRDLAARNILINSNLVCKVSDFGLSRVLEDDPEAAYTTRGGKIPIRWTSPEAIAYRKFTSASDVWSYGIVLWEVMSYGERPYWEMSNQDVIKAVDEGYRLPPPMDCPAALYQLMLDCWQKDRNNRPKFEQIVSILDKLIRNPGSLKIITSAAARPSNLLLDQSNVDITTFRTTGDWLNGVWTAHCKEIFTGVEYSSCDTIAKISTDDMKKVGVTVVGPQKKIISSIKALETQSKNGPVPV

[5] = biological target: DNA-dependent protein kinase catalytic subunit (Homo sapiens) (UniProt P78527); assay: Selectivity interaction (Kinase panel (KiNativ target engagement assay in Jurkat cells)) EUB0001635a PRKDC; type: cell-based; conditions: Selectivity number of off-targets 0.0, Selectivity number of targets 233.0, Source Knowledge https://www.sciencedirect.com/science/article/pii/S2451945619300674?via%3Dihub, at 1 µM
[6] = test system: Receptor-type tyrosine-protein kinase FLT3 (Homo sapiens), P36888 [UNDEFINED MUTATION]; assay: Selectivity interaction (KinomeScan (DiscoverX)) EUB0000311b FLT3; conditions: at 1 µM
Sequence of Receptor-type tyrosine-protein kinase FLT3 (Homo sapiens), P36888 [UNDEFINED MUTATION] (P36888 whole entry, looked up, change not shown): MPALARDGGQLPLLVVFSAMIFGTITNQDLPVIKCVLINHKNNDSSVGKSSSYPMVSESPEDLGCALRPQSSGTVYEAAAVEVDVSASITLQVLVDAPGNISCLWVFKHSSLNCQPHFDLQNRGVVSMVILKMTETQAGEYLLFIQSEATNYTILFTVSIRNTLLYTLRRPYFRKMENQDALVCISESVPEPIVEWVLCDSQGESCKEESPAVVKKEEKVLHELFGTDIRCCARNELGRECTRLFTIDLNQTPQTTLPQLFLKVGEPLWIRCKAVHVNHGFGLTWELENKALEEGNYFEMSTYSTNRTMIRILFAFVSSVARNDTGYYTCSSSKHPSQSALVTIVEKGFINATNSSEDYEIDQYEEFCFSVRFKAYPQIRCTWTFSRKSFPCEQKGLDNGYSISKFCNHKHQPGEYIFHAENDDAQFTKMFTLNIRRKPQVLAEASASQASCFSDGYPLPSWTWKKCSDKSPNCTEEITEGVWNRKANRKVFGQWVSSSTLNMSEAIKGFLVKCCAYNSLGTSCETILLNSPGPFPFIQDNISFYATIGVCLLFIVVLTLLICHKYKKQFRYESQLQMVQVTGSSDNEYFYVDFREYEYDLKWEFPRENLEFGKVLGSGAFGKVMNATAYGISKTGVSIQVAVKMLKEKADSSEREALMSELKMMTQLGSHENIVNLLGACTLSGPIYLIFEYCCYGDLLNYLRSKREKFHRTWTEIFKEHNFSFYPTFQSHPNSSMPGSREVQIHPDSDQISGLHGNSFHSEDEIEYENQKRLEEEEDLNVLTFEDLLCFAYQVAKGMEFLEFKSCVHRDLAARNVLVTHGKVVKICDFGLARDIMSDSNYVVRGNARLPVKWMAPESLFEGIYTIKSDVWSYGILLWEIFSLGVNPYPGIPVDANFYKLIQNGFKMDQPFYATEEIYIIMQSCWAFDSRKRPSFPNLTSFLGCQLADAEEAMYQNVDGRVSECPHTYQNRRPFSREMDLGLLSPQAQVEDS

Sequence of Tyrosine-protein kinase Srms (Homo sapiens) (Q9H3Y6 whole entry): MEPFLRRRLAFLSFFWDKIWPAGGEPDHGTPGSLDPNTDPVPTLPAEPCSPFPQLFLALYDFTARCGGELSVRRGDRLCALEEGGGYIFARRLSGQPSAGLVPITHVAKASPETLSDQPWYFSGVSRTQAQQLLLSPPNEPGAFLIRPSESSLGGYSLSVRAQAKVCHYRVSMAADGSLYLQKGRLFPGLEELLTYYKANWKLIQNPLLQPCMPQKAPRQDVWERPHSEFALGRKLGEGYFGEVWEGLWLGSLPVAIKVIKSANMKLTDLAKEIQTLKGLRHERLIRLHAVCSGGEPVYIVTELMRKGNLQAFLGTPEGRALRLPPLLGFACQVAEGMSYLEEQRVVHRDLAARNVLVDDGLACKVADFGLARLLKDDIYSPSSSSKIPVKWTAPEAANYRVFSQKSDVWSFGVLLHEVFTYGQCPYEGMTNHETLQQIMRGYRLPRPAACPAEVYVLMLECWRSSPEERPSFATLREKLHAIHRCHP

- % of control [1]: 100%
SMILES: CCN(CC)CCCCNc1ncc2cc(-c3cc(OC)cc(OC)c3)c(NC(=O)NC(C)(C)C)nc2n1

- % of control [2]: 95%
SMILES: CC(=O)Nc1cccc(-n2c(=O)n(C3CC3)c(=O)c3c(Nc4ccc(I)cc4F)n(C)c(=O)c(C)c32)c1

- % of control [6]: 12%
SMILES: CCc1ccccc1C(=O)Nc1n[nH]c2c(C)c(F)c(C3C(C#N)=C(C)N(C)C(C)=C3C#N)cc12 [BAY-3827]

More lines, now with the values behind:

SMILES: O[C@H]1CC[C@H](Nc2ncc3nc(Nc4c(F)cc(F)cc4F)n([C@H]4CCOC4)c3n2)CC1
- % of control [3]: 100%

SMILES: C=CC(=O)Nc1cc(-n2c(=O)ccc3cnc4ccc(-c5ccc(NS(C)(=O)=O)cc5)cc4c32)ccc1C
- % of control ([4]; at 1 µM): 89%
- % of control ([4]; at 10 µM): 92%

SMILES: C=CC(=O)Nc1ccc(C(=O)Nc2[nH]nc3c2CN(C(=O)N[C@H](CN(C)C)c2ccccc2)C3(C)C)cc1
- % of engagement [5]: -21.9%
